In PubChem BioAssay AID292 (DTP/NCI, 2004):
Where “and” joins values, the source holds several entries; their conditions need not be identical. Equal values may be shown once. Inconclusive results and toxic doses are left out.

Test system: B6C3F1 mice, ip Sarcoma M5076, median survival T/C
Assay: NCI In Vivo Anticancer Drug Screen. Data for tumor model Sarcoma M5076 (intraperitoneal) in B6C3F1 mice
Settings: endpoint: median survival time, schedule: Q04DX004 (ip), higher = longer survival
Procedure, shortened: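 Mice carrying the transplanted tumour received compound treatment. Survival was recorded, and each value is the treated-group measurement divided by that of the vehicle-dosed control group.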

[1] = dose: 25.0 mg/kg/injection, vehicle: saline with Tween-80
[2] = dose: 50.0 mg/kg/injection, vehicle: saline with Tween-80
[3] = dose: 100.0 mg/kg/injection, vehicle: saline with Tween-80
[4] = dose: 200.0 mg/kg/injection, vehicle: saline with Tween-80
[5] = dose: 400.0 mg/kg/injection, vehicle: saline with Tween-80
[6] = dose: 37.5 mg/kg/injection, vehicle: saline with Tween-80
[7] = dose: 75.0 mg/kg/injection, vehicle: saline with Tween-80
[8] = dose: 150.0 mg/kg/injection, vehicle: saline with Tween-80
[9] = dose: 300.0 mg/kg/injection, vehicle: saline with Tween-80

COc1cc2c(c(OC)c1OC)-c1ccc(SC)c(=O)cc1[C@@H](NC(C)=O)CC2
T/C (dose: 0.03 mg/kg/injection, vehicle: Klucel (hydroxypropylcellulose) (HPC)): 102 % of control | T/C (dose: 0.05 mg/kg/injection, vehicle: Klucel (hydroxypropylcellulose) (HPC)): 106 % of control | T/C (dose: 0.1 mg/kg/injection, vehicle: Klucel (hydroxypropylcellulose) (HPC)): 104 % of control and 113 % of control | T/C (dose: 0.14 mg/kg/injection, vehicle: Klucel (hydroxypropylcellulose) (HPC)): 114 % of control | T/C (dose: 0.19 mg/kg/injection, vehicle: Klucel (hydroxypropylcellulose) (HPC)): 112 % of control | T/C (dose: 0.23 mg/kg/injection, vehicle: Klucel (hydroxypropylcellulose) (HPC)): 116 % of control | T/C (dose: 0.45 mg/kg/injection, vehicle: Klucel (hydroxypropylcellulose) (HPC)): 103 % of control

COc1cc2c(c(OC)c1O)-c1ccc(OC)c(=O)cc1[C@@H](NC(=O)C(F)(F)F)CC2
T/C (dose: 0.9 mg/kg/injection, vehicle: Klucel (hydroxypropylcellulose) (HPC)): 110 % of control | T/C (dose: 1.55 mg/kg/injection, vehicle: Klucel (hydroxypropylcellulose) (HPC)): 124 % of control | T/C (dose: 2.59 mg/kg/injection, vehicle: Klucel (hydroxypropylcellulose) (HPC)): 122 % of control | T/C (dose: 4.32 mg/kg/injection, vehicle: Klucel (hydroxypropylcellulose) (HPC)): 124 % of control | T/C (dose: 7.2 mg/kg/injection, vehicle: Klucel (hydroxypropylcellulose) (HPC)): 124 % of control

CC(C)NCC(O)CC(c1ccccc1)c1ccccc1 (stereo unspecified)
T/C (dose: 12.5 mg/kg/injection, vehicle: saline with Tween-80): 95 % of control | T/C [1]: 101 % of control | T/C [2]: 98 % of control | T/C [3]: 91 % of control

Clc1nc2cc3c(cc2n2cccc12)oc1ccccc13
T/C [1]: 93 % of control | T/C [2]: 95 % of control | T/C [3]: 94 % of control | T/C [4]: 86 % of control | T/C [5]: 86 % of control

COc1cc([C@@H]2c3cc4c(c(O)c3C[C@H]3COC(=O)[C@@H]32)OCO4)cc(OC)c1OC
T/C (dose: 4.8 mg/kg/injection, vehicle: suspension in saline): 159 % of control | T/C (dose: 8.0 mg/kg/injection, vehicle: suspension in saline): 163 % of control | T/C (dose: 13.3 mg/kg/injection, vehicle: suspension in saline): 155 % of control

O=c1[nH]c2cc3c(cc2n2cccc12)oc1ccccc13
T/C [2]: 90 % of control | T/C [3]: 98 % of control | T/C [5]: 90 % of control

Cc1nc(N)nc(N)c1N1CCN(c2ccc(C(=O)NC(C(=O)O)C(=O)O)cc2)CC1
T/C (dose: 3.75 mg/kg/injection, vehicle: Klucel + Tween-80): 104 % of control | T/C (dose: 7.5 mg/kg/injection, vehicle: Klucel + Tween-80): 106 % of control | T/C (dose: 15.0 mg/kg/injection, vehicle: Klucel + Tween-80): 103 % of control | T/C (dose: 30.0 mg/kg/injection, vehicle: Klucel + Tween-80): 113 % of control | T/C (dose: 60.0 mg/kg/injection, vehicle: Klucel + Tween-80): 121 % of control

O=C(N/N=C/c1ccco1)c1ccc(OCc2nc3ccccc3[nH]2)cc1
T/C [1]: 97 % of control | T/C [2]: 95 % of control | T/C [3]: 96 % of control | T/C [4]: 90 % of control

C=C1COC(O)(C2OCOC(C3CC(=O)NC(=O)C3)C2O)C1C (stereo unspecified)
T/C (dose: 4.0 micrograms/kg/injection, vehicle: water): 112 % of control | T/C (dose: 8.0 micrograms/kg/injection, vehicle: water): 117 % of control | T/C (dose: 13.8 micrograms/kg/injection, vehicle: water): 105 % of control | T/C (dose: 16.0 micrograms/kg/injection, vehicle: water): 117 % of control | T/C (dose: 23.04 micrograms/kg/injection, vehicle: water): 116 % of control | T/C (dose: 38.0 micrograms/kg/injection, vehicle: water): 162 % of control | T/C (dose: 38.4 micrograms/kg/injection, vehicle: water): 110 % of control

O=[n+]1c2c(n([O-])c3cc(Cl)c(Cl)cc31)CCCC2
T/C (dose: 18.75 mg/kg/injection, vehicle: saline with Tween-80): 99 % of control | T/C [6]: 97 % of control | T/C [7]: 100 % of control | T/C [8]: 97 % of control | T/C [9]: 95 % of control

COc1cc(C2CC(C)(O)Oc3cc4c(cc32)OCO4)cc(OC)c1OC (stereo unspecified)
T/C [2]: 115 % of control

CN(C)CCNc1ccc(CO)c2sc3ccc(O)cc3c(=O)c12
T/C [2]: 155 % of control | T/C [3]: 119 % of control | T/C [5]: 158 % of control

[N-]=[N+]=CC(=O)CCC(NC(=O)OCc1ccccc1)C(=O)OCc1ccccc1 (stereo unspecified)
T/C (dose: 25.0 mg/kg/injection, vehicle: Klucel (hydroxypropylcellulose) (HPC)): 113 % of control | T/C (dose: 50.0 mg/kg/injection, vehicle: Klucel (hydroxypropylcellulose) (HPC)): 115 % of control | T/C (dose: 100.0 mg/kg/injection, vehicle: Klucel (hydroxypropylcellulose) (HPC)): 121 % of control | T/C (dose: 200.0 mg/kg/injection, vehicle: Klucel (hydroxypropylcellulose) (HPC)): 121 % of control

Oc1ccc(/C=N/N=C/c2ccc(O)c(O)c2)cc1O
T/C [2]: 98 % of control | T/C [3]: 95 % of control | T/C [4]: 95 % of control | T/C [5]: 93 % of control | T/C (dose: 800.0 mg/kg/injection, vehicle: saline with Tween-80): 107 % of control

C=C(OC)C(Nc1cc(OC)c(OC)cc1C(=O)OC1CC(O[C@@H]2C(=O)C(NC(=O)OC)=C3/C(=C\CSSSC)[C@]2(O)C#C/C=C\C#C[C@@H]3OC2OC(C)C(NOC3CC(O)C(SC)C(C)O3)C(O)C2OC2CC(OC)C(NCCC)CO2)OC(C)C1O)OC (stereo partly specified)
T/C (dose: 0.32 micrograms/kg/injection, vehicle: saline + alcohol): 152 % of control | T/C (dose: 1.28 micrograms/kg/injection, vehicle: saline + alcohol): 156 % of control

CN=C(NC)c1ccc(NC(=O)/C=C\c2ccc(/C=C/C(=O)Nc3ccc(C(=NC)NC)cc3)cc2)cc1
T/C (dose: 3.12 mg/kg/injection, vehicle: Klucel (hydroxypropylcellulose) (HPC)): 124 % of control | T/C (dose: 3.75 mg/kg/injection, vehicle: Klucel (hydroxypropylcellulose) (HPC)): 116 % of control | T/C (dose: 6.25 mg/kg/injection, vehicle: Klucel (hydroxypropylcellulose) (HPC)): 115 % of control | T/C (dose: 10.42 mg/kg/injection, vehicle: Klucel (hydroxypropylcellulose) (HPC)): 164 % of control | T/C (dose: 17.37 mg/kg/injection, vehicle: Klucel (hydroxypropylcellulose) (HPC)): 105 % of control

O=C1N(Cl)C(=O)C(c2ccc(Cl)cc2)(c2ccc(Cl)cc2)N1Cl
T/C [1]: 102 % of control | T/C [2]: 102 % of control | T/C [3]: 96 % of control

O=C[C@@H](CO)O[C@H](C=O)c1c[nH]c(=O)[nH]c1=O
T/C (dose: 12.5 mg/kg/injection, vehicle: saline): 111 % of control and 121 % of control | T/C (dose: 18.0 mg/kg/injection, vehicle: saline): 110 % of control | T/C (dose: 25.0 mg/kg/injection, vehicle: saline): 114 % of control and 123 % of control | T/C (dose: 30.0 mg/kg/injection, vehicle: saline): 118 % of control | T/C (dose: 50.0 mg/kg/injection, vehicle: saline): 123 % of control | T/C (dose: 100.0 mg/kg/injection, vehicle: saline): 165 % of control | T/C (dose: 138.8 mg/kg/injection, vehicle: saline): 153 % of control

S=c1sc(-c2ccc(Cl)cc2)nn1CSc1nc2ccccc2[nH]1
T/C [6]: 105 % of control | T/C [7]: 98 % of control | T/C [8]: 96 % of control | T/C [9]: 95 % of control

CSC1=NCc2c(sc3c2CCCC3)N1
T/C (dose: 37.5 mg/kg/injection, vehicle: Klucel (hydroxypropylcellulose) (HPC)): 98 % of control | T/C (dose: 75.0 mg/kg/injection, vehicle: Klucel (hydroxypropylcellulose) (HPC)): 103 % of control | T/C (dose: 150.0 mg/kg/injection, vehicle: Klucel (hydroxypropylcellulose) (HPC)): 99 % of control | T/C (dose: 300.0 mg/kg/injection, vehicle: Klucel (hydroxypropylcellulose) (HPC)): 102 % of control
